A short description of the data set: Brightness B = Φ * εmax. It counts as physicochemical. Conditions: versus chelate of unsubstituted ligand (Table 7). The source says: • “Brightness (B)” refers to the amount of radiation emitted by a chromophore or dye. In the case of one-photon absorption, B is defined as the product of the emission quantum yield (Φ) by the molar absorption coefficient (ε), i.e., B=ε·Φ, at a given excitation wavelength. In the case of two-photon absorption, B is defined as the product of the emission quantum yield (Φ) by the cross section (σ), i.e., […], at a given excitation wavelength. • “Carboxylate ester” refers to an ester of a molecule, said molecule comprising at least one carboxylic acid function (—COOH), wherein the ester is formed by esterification of at least one carboxylic acid function of the molecule. Preferred carboxylic esters are methyl esters. “Mono-ester”, “di-ester” and “tri-ester” respectively refers to esters wherein exactly one, two and three carboxylic acid functions have been esterified. • “Carboxylate salt” refers to a salt of a molecule, said molecule comprising at least one carboxylic acid function (—COOH), wherein the salt is formed by deprotonation of at least one carboxylic acid function of the molecule. Preferred carboxylic salts are potassium or sodium salts, more preferably potassium salts. […]

As for `COCCOCCOCCOc1ccc(C#Cc2cc(CN3CCN(CC(=O)[O-])Cc4cccc(n4)CN(Cc4cc(C#Cc5ccc(OCCOCCOCCOC)cc5)cc(C(=O)[O-])n4)CC3)nc(C(=O)[O-])c2)cc1.[K+].[K+].[K+]` [Complex S1, potassium 6,6′-((9-(carboxylatomethyl)-3,6,9-triaza-1(2,6)-pyridinacyclodecaphane-3,6-diyl)bis(methylene)) bis(4-((4-(2-(2-(2-methoxyethoxy)ethoxy)ethoxy)phenyl)ethynyl) picolinate)], the “increase in brightness of europium chelate on substitution of picolinate arms by chromophore” value is recorded as “about 4 fold”.
Under `COCCOCCOCCOc1ccc(C#Cc2cc(CN3CCN(CC(=O)[O-])CCN(Cc4cc(C#Cc5ccc(OCCOCCOCCOC)cc5)cc(C(=O)[O-])n4)Cc4cccc(n4)C3)nc(C(=O)[O-])c2)cc1.[K+].[K+].[K+]` [Complex S4, potassium 6,6′-((6-(carboxylatomethyl)-3,6,9-triaza-1(2,6)-pyridinacyclodecaphane-3,9-diyl)bis(methylene)) bis(4-((4-(2-(2-(2-methoxyethoxy)ethoxy)ethoxy)phenyl)ethynyl) picolinate)] stands “about 3 fold”.
